Reference: patent US9573957B2 (Boehringer Ingelheim International GmbH, priority 2013, dated 2017)

Legend:
[1] = molecular target: human LTA4 hydrolase (Homo sapiens (Human), UniProt P09960); experiment: LTA4H Enzyme assay (peptidase, Arg-AMC cleavage); type: biochemical; conditions: LTA4H Enzyme 1 nM, Arg-AMC substrate 50 μM, room temperature 1 h, fluorescence
Outline: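 Peptidase activity of human LTA4H (1 nM final) on Arg-AMC (50 μM final), with compound, 1 h at room temperature. Buffer: 50 mM Tris-HCl pH 7.5, 100 mM KCl, 0.5% BSA.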

[2] = test system: synthesis of LTB4 in human whole blood; experiment: LTB4 production inhibition assay in human whole blood (HWB); type: cell-based; conditions: heparinized human whole blood, 15 min at 37° C., Calcimycin 20 μM 30 min, plasma LTB4 by HTRF
Outline: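 Heparinized human whole blood preincubated with compound 15 min at 37° C, then stimulated with calcimycin (20 μM final) for 30 min at 37° C. Plasma separated by centrifugation; LTB4 measured by antibody-based homogeneous time-resolved fluorescence.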

human LTA4 hydrolase, sequence (P09960 whole entry): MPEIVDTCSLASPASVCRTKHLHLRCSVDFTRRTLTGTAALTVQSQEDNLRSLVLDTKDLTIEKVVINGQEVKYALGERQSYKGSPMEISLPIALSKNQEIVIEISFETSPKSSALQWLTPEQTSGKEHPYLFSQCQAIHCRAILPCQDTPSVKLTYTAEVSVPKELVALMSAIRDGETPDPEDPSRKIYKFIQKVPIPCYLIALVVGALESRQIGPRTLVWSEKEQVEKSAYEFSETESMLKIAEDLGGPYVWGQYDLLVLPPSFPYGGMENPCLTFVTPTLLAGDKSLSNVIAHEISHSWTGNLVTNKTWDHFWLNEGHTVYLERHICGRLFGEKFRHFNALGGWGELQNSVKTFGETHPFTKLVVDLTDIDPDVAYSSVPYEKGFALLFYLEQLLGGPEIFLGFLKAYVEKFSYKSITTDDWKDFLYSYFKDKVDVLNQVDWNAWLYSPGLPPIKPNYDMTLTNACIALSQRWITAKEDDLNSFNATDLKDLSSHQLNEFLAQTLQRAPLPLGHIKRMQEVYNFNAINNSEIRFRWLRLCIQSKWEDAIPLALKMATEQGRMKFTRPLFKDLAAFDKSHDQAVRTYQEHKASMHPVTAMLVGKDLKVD

SMILES	IC50 [1] [nM]	IC50 [2] [nM]
C[C@H](O)C(=O)N1CCN(Cc2cn3cc(Oc4ccc(-c5ccn[nH]5)cc4)ccc3n2)CC1 [Example 87, (S)-2-Hydroxy-1-(4-{6-[4-(2H-pyrazol-3-yl)-phenoxy]-imidazo[1,2-a]pyridin-2-ylmethyl}-piperazin-1-yl)-propan-1-one]	1	260
CO[C@@H](C)C(=O)N1CCN(CCC2COc3cc(Oc4ccc(-c5ccn[nH]5)cn4)ccc32)CC1 (stereo partly drawn) [Example 88, (S)-2-Methoxy-1-[4-(2-{6-[5-(2H-pyrazol-3-yl)-pyridin-2-yloxy]-2,3-dihydro-benzofuran-3-yl}-ethyl)-piperazin-1-yl]-propan-1-one]	1.2	410
COCC(=O)N1CCN(Cc2cn3cc(Oc4ccc(-c5ccn[nH]5)cc4)ccc3n2)CC1 [Example 89, 2-Methoxy-1-(4-{6-[4-(2H-pyrazol-3-yl)-phenoxy]-imidazo[1,2-a]pyridin-2-ylmethyl}-piperazin-1-yl)-ethanone]	0.66	470
O=C(N1CCN(CCC2COc3cc(Oc4ccc(-c5ccn[nH]5)cn4)ccc32)CC1)C1(O)CC1 (stereo not drawn) [Example 90, (1-Hydroxy-cyclopropyl)-[4-(2-{6-[5-(2H-pyrazol-3-yl)-pyridin-2-yloxy]-2,3-dihydro-benzofuran-3-yl}-ethyl)-piperazin-1-yl]-methanone]	1.5	640
C[C@@H](O)C(=O)N1CCN(CCC2COc3cc(Oc4ccc(-c5ccn[nH]5)cn4)ccc32)CC1 (stereo partly drawn) [Example 91, (R)-2-Hydroxy-1-[4-(2-{6-[5-(2H-pyrazol-3-yl)-pyridin-2-yloxy]-2,3-dihydro-benzofuran-3-yl}-ethyl)-piperazin-1-yl]-propan-1-one]	2.2	930
C[C@@H](O)C(=O)N1CCN(CCc2coc3cc(Oc4ccc(-c5ccn[nH]5)cn4)ccc23)CC1 [Example 92, (R)-2-Hydroxy-1-[4-(2-{6-[5-(2H-pyrazol-3-yl)-pyridin-2-yloxy]-benzofuran-3-yl}-ethyl)-piperazin-1-yl]-propan-1-one]	1.1	470
O=C(N1CCN(CCc2coc3cc(Oc4ccc(-c5ccn[nH]5)cn4)ccc23)CC1)C1(O)CC1 [Example 93, (1-Hydroxy-cyclopropyl)-[4-(2-{6-[5-(2H-pyrazol-3-yl)-pyridin-2-yloxy]-benzofuran-3-yl}-ethyl)-piperazin-1-yl]-methanone]	0.91	530
C[C@@H](O)C(=O)N1CCN(Cc2cn3cc(Oc4ccc(-c5ccn[nH]5)cc4)ccc3n2)CC1 [Example 94, (R)-2-Hydroxy-1-(4-{6-[4-(2H-pyrazol-3-yl)-phenoxy]-imidazo[1,2-a]pyridin-2-ylmethyl}-piperazin-1-yl)-propan-1-one]	0.87	350
CC(=O)N1CCN(Cc2cn3cc(Oc4ccc(-c5ccn[nH]5)cc4)ccc3n2)CC1 [Example 95, 1-(4-{6-[4-(2H-Pyrazol-3-yl)-phenoxy]-imidazo[1,2-a]pyridin-2-ylmethyl}-piperazin-1-yl)-ethanone]	0.59	280
O=C(N1CCN(Cc2cn3cc(Oc4ccc(-c5ccn[nH]5)cc4)ccc3n2)CC1)C1(O)CC1 [Example 96, (1-Hydroxy-cyclopropyl)-(4-{6-[4-(2H-pyrazol-3-yl)-phenoxy]-imidazo[1,2-a]pyridin-2-ylmethyl}-piperazin-1-yl)-methanone]	1.2	990
CC(=O)N1CCCN(Cc2coc3cc(Oc4ccc(-c5ccn[nH]5)cn4)ccc23)CC1 [Example 97, 1-(4-{6-[5-(2H-Pyrazol-3-yl)-pyridin-2-yloxy]-benzofuran-3-ylmethyl}-[1,4]diazepan-1-yl)-ethanone]	0.58	210
CN(C(=O)CO)[C@@H]1CCN(Cc2ccc3cc(Oc4ccc(-c5ccn[nH]5)cn4)ccc3n2)C1 [Example 98]	0.72	120
CN(C(=O)CO)[C@H]1CCN(Cc2ccc3cc(Oc4ccc(-c5ccn[nH]5)cn4)ccc3n2)C1 [Example 99]	0.86	140
CN(Cc1ccc2cc(Oc3ccc(-c4ccn[nH]4)cn3)ccc2n1)[C@@H]1CCN(C(=O)CO)C1 [Example 100, 2-Hydroxy-1-[(R)-3-(methyl-{6-[5-(2H-pyrazol-3-yl)-pyridin-2-yloxy]-quinolin-2-ylmethyl}-amino)-pyrrolidin-1-yl]-ethanone]	0.92	170
CN(Cc1ccc2cc(Oc3ccc(-c4ccn[nH]4)cn3)ccc2n1)[C@H]1CCN(C(=O)CO)C1 [Example 101, 2-Hydroxy-1-[(S)-3-(methyl-{6-[5-(2H-pyrazol-3-yl)-pyridin-2-yloxy]-quinolin-2-ylmethyl}-amino)-pyrrolidin-1-yl]-ethanone]	2	230
O=C(CO)N1CCC2(CCN(Cc3ccc4cc(Oc5ccc(-c6ccn[nH]6)cn5)ccc4n3)C2)C1 (stereo not drawn) [Example 102, 2-Hydroxy-1-(7-{6-[5-(2H-pyrazol-3-yl)-pyridin-2-yloxy]-quinolin-2-ylmethyl}-2,7-diaza-spiro[4.4]non-2-yl)-ethanone]	0.66	150
CNC(=O)C1CCN(Cc2coc3cc(Oc4ccc(-c5ccn[nH]5)cn4)ccc23)CC1 [Example 103, 1-{6-[5-(2H-Pyrazol-3-yl)-pyridin-2-yloxy]-benzofuran-3-ylmethyl}-piperidine-4-carboxylic acid methylamide]	0.49	170
CC(=O)NC1CCN(Cc2coc3cc(Oc4ccc(-c5ccn[nH]5)cn4)ccc23)CC1 [Example 104, N-(1-{6-[5-(2H-Pyrazol-3-yl)-pyridin-2-yloxy]-benzofuran-3-ylmethyl}-piperidin-4-yl)-acetamide]	0.56	150

Continued, values first:

IC50 [1] [nM]	IC50 [2] [nM]	SMILES
0.81	210	CS(=O)(=O)NC1CCN(Cc2coc3cc(Oc4ccc(-c5ccn[nH]5)cn4)ccc23)CC1 [Example 105, N-(1-{6-[5-(2H-Pyrazol-3-yl)-pyridin-2-yloxy]-benzofuran-3-ylmethyl}-piperidin-4-yl)-methanesulfonamide]
0.38	120	CC(=O)NCC1CCN(Cc2coc3cc(Oc4ccc(-c5ccn[nH]5)cn4)ccc23)CC1 [Example 106, N-(1-{6-[5-(2H-Pyrazol-3-yl)-pyridin-2-yloxy]-benzofuran-3-ylmethyl}-piperidin-4-ylmethyl)-acetamide]
0.7	210	CC(=O)N1CCC(CNCc2coc3cc(Oc4ccc(-c5ccn[nH]5)cn4)ccc23)CC1 [Example 107, 1-{4-[({6-[5-(2H-Pyrazol-3-yl)-pyridin-2-yloxy]-benzofuran-3-ylmethyl}-amino)-methyl]-piperidin-1-yl}-ethanone]
0.71	180	CC(=O)N1CCC(NCc2coc3cc(Oc4ccc(-c5ccn[nH]5)cn4)ccc23)CC1 [Example 108, 1-[4-({6-[5-(2H-Pyrazol-3-yl)-pyridin-2-yloxy]-benzofuran-3-ylmethyl}-amino)-piperidin-1-yl]-ethanone]
0.36	140	O=C1[C@@H](O)CCN1C1CCN(Cc2coc3cc(Oc4ccc(-c5ccn[nH]5)cn4)ccc23)CC1 [Example 109, (S)-3-Hydroxy-1-(1-{6-[5-(2H-pyrazol-3-yl)-pyridin-2-yloxy]-benzofuran-3-ylmethyl}-piperidin-4-yl)-pyrrolidin-2-one]
0.22	130	CN1CCC2(CCN(Cc3coc4cc(Oc5ccc(-c6ccn[nH]6)cn5)ccc34)CC2)C1=O [Example 110, 2-Methyl-8-{6-[5-(2H-pyrazol-3-yl)-pyridin-2-yloxy]-benzofuran-3-ylmethyl}-2,8-diaza-spiro[4.5]decan-1-one]
0.68	170	O=C(CN1CCN(Cc2coc3cc(Oc4ccc(-c5ccn[nH]5)cn4)ccc23)CC1)N1CCCC1 [Example 111, 2-(4-{6-[5-(2H-Pyrazol-3-yl)-pyridin-2-yloxy]-benzofuran-3-ylmethyl}-piperazin-1-yl)-1-pyrrolidin-1-yl-ethanone]
1.9	350	CC(=O)N1CCN(C(=O)c2coc3cc(Oc4ccc(-c5ccn[nH]5)cn4)ccc23)CC1 [Example 112, 1-(4-{6-[5-(2H-Pyrazol-3-yl)-pyridin-2-yloxy]-benzofuran-3-carbonyl}-piperazin-1-yl)-ethanone]
0.42	160	CN(C(=O)CO)[C@@H]1CCN(Cc2coc3cc(Oc4ccc(-c5ccn[nH]5)cn4)ccc23)C1 [Example 113, 2-Hydroxy-N-methyl-N-((R)-1-{6-[5-(2H-pyrazol-3-yl)-pyridin-2-yloxy]-benzofuran-3-ylmethyl}-pyrrolidin-3-yl)-acetamide]
0.56	150	CN(C(=O)CO)[C@H]1CCN(Cc2coc3cc(Oc4ccc(-c5ccn[nH]5)cn4)ccc23)C1 [Example 114, 2-Hydroxy-N-methyl-N-((S)-1-{6-[5-(2H-pyrazol-3-yl)-pyridin-2-yloxy]-benzofuran-3-ylmethyl}-pyrrolidin-3-yl)-acetamide]
0.43	120	O=C(CO)N1CCC2(CCN(Cc3coc4cc(Oc5ccc(-c6ccn[nH]6)cn5)ccc34)C2)C1 (stereo not drawn) [Example 115, 2-Hydroxy-1-(7-{6-[5-(2H-pyrazol-3-yl)-pyridin-2-yloxy]-benzofuran-3-ylmethyl}-2,7-diaza-spiro[4.4]non-2-yl)-ethanone]
0.87	240	N#CC1(C(=O)N2CCN(Cc3ccc4cc(Oc5ccc(-c6ccn[nH]6)cn5)ccc4n3)CC2)CC1 [Example 116, 1-(4-{6-[5-(2H-Pyrazol-3-yl)-pyridin-2-yloxy]-quinolin-2-ylmethyl}-piperazine-1-carbonyl)-cyclopropanecarbonitrile]
